Assay results taken from patent publication US5393743A, “Erythromycin derivatives” (Abbott Laboratories, priority 1993, dated 1995).
≈ marks a conversion by molar mass, not a printed value. Where two headings read alike, the source gives them in different places.

Tests used:
[1] = system: Enterobacter aerogenes ATCC 13048; test: In vitro antibacterial activity, agar dilution MIC; type: cell-based
Method: (§1) Representative compounds of the present invention were assayed in vitro for antibacterial activity as follows: Twelve petri dishes containing successive aqueous dilutions of the test compound mixed with 10 mL of sterilized Brain Heart Infusion (BHI) agar (Difco 0418-01-5) were prepared. Each plate was inoculated with 1:100 (or 1:10 for slow-growing strains, such as Micrococcus and Streptococcus) dilutions of up to 32 different microorganisms, using a Steers replicator block. The inoculated plates were incubated 35°-37° C. for 20 to 24 hours. In addition, a control plate, using BHI agar containing no test compound, was prepared and incubated at the beginning and end of each test.
(§2) An additional plate containing a compound having known susceptibility patterns for the organisms being tested and belonging to the same antibiotic class as the test compound was also prepared and incubated as a further control, as well as to provide test-to-test comparability. Erythromycin A was used for this purpose.
(§3) After incubation, each disk was read. The minimum inhibitory concentration (MIC) was defined as the lowest concentration of drug yielding no growth, a slight haze, or sparsely isolated colonies on the inoculum spot as compared to the growth control.

[2] = system: Klebsiella pneumoniae ATCC 8045; test: In vitro antibacterial activity, agar dilution MIC; type: cell-based
Method: as §1, §2, §3

[3] = system: Staphylococcus aureus CMX 642a; test: In vitro antibacterial activity, agar dilution MIC; type: cell-based
Method: as §1, §2, §3

[4] = system: Staphylococcus aureus A5177; test: In vitro antibacterial activity, agar dilution MIC; type: cell-based
Method: as §1, §2, §3

[5] = system: Streptococcus pyogenes EES61; test: In vitro antibacterial activity, agar dilution MIC; type: cell-based
Method: as §1, §2, §3

[6] = system: Pseudomonas aeruginosa 2862; test: In vitro antibacterial activity, agar dilution MIC; type: cell-based
Method: as §1, §2, §3

Escherichia coli H560 = test: In vitro antibacterial activity, agar dilution MIC; type: cell-based
Method: as §1, §2, §3

[7] = system: Staphylococcus aureus 1775 Cipro R; test: In vitro antibacterial activity, agar dilution MIC; type: cell-based
Method: as §1, §2, §3

[8] = system: Staphylococcus epidermidis 3519; test: In vitro antibacterial activity, agar dilution MIC; type: cell-based
Method: as §1, §2, §3

[9] = system: Pseudomonas aeruginosa K799/WT; test: In vitro antibacterial activity, agar dilution MIC; type: cell-based
Method: as §1, §2, §3

[10] = system: Acinetobacter calcoaceticus CMX 669; test: In vitro antibacterial activity, agar dilution MIC; type: cell-based
Method: as §1, §2, §3

[11] = system: Streptococcus pyogenes 2548 induc; test: In vitro antibacterial activity, agar dilution MIC; type: cell-based
Method: as §1, §2, §3

[12] = system: Staphylococcus aureus ATCC 6538P; test: In vitro antibacterial activity, agar dilution MIC; type: cell-based
Method: as §1, §2, §3

Micrococcus luteus 4698 = test: In vitro antibacterial activity, agar dilution MIC; type: cell-based
Method: as §1, §2, §3

Escherichia coli DC-2 = test: In vitro antibacterial activity, agar dilution MIC; type: cell-based
Method: as §1, §2, §3

[13] = system: Streptococcus pyogenes 930 const; test: In vitro antibacterial activity, agar dilution MIC; type: cell-based
Method: as §1, §2, §3

Pseudomonas cepacia 2961 = test: In vitro antibacterial activity, agar dilution MIC; type: cell-based
Method: as §1, §2, §3

[14] = system: Pseudomonas aeruginosa 5263; test: In vitro antibacterial activity, agar dilution MIC; type: cell-based
Method: as §1, §2, §3

[15] = system: Pseudomonas aeruginosa A5007; test: In vitro antibacterial activity, agar dilution MIC; type: cell-based
Method: as §1, §2, §3

Escherichia coli KNK 437 = test: In vitro antibacterial activity, agar dilution MIC; type: cell-based
Method: as §1, §2, §3

[16] = system: Staphylococcus aureus CMX 553; test: In vitro antibacterial activity, agar dilution MIC; type: cell-based
Method: as §1, §2, §3

[17] = system: Providencia stuartii CMX 640; test: In vitro antibacterial activity, agar dilution MIC; type: cell-based
Method: as §1, §2, §3

Escherichia coli Juhl = test: In vitro antibacterial activity, agar dilution MIC; type: cell-based
Method: as §1, §2, §3

[18] = system: Enterococcus faecium ATCC 8043; test: In vitro antibacterial activity, agar dilution MIC; type: cell-based
Method: as §1, §2, §3

[19] = system: Staphylococcus aureus A5278; test: In vitro antibacterial activity, agar dilution MIC; type: cell-based
Method: as §1, §2, §3

[20] = system: Streptococcus bovis A5169; test: In vitro antibacterial activity, agar dilution MIC; type: cell-based
Method: as §1, §2, §3

[21] = system: Streptococcus agalactiae 508; test: In vitro antibacterial activity, agar dilution MIC; type: cell-based
Method: as §1, §2, §3

[22] = system: Staphylococcus aureus NCTC 10649; test: In vitro antibacterial activity, agar dilution MIC; type: cell-based
Method: as §1, §2, §3

[23] = system: Pseudomonas aeruginosa BMH10; test: In vitro antibacterial activity, agar dilution MIC; type: cell-based
Method: as §1, §2, §3

Escherichia coli SS = test: microbe, parasite or virus in culture
Method: as §1, §2, §3

[24] = system: Micrococcus luteus ATCC 9341; test: microbe, parasite or virus in culture
Method: as §1, §2, §3

[25] = system: Pseudomonas aeruginosa K799/61; test: In vitro antibacterial activity, agar dilution MIC; type: cell-based; conditions: BHI agar, 35°-37° C., 20 to 24 hours

(3"S)-11-O,12-O-carbonyl-3"-fluoro-3"-desmethoxy-4"-O-methylerythromycin A [Example 15]
MIC ([1]; Enterobacter aerogenes ATCC 13048, BHI agar, 35°-37° C., 20 to 24 hours): > 100 µg/mL | MIC ([2]; Klebsiella pneumoniae ATCC 8045, BHI agar, 35°-37° C., 20 to 24 hours): 100 µg/mL | MIC ([3]; Staphylococcus aureus CMX 642a, BHI agar, 35°-37° C., 20 to 24 hours): 0.39 µg/mL | MIC ([4]; Staphylococcus aureus A5177, BHI agar, 35°-37° C., 20 to 24 hours): 6.2 µg/mL | MIC ([5]; Streptococcus pyogenes EES61, BHI agar, 35°-37° C., 20 to 24 hours): 0.05 µg/mL | MIC ([6]; Pseudomonas aeruginosa 2862, BHI agar, 35°-37° C., 20 to 24 hours): > 100 µg/mL | MIC (Escherichia coli H560; Escherichia coli H560, BHI agar, 35°-37° C., 20 to 24 hours): 50 µg/mL | MIC ([7]; Staphylococcus aureus 1775 Cipro R, BHI agar, 35°-37° C., 20 to 24 hours): > 100 µg/mL | MIC ([8]; Staphylococcus epidermidis 3519, BHI agar, 35°-37° C., 20 to 24 hours): 0.39 µg/mL | MIC ([9]; Pseudomonas aeruginosa K799/WT, BHI agar, 35°-37° C., 20 to 24 hours): 100 µg/mL | MIC ([10]; Acinetobacter calcoaceticus CMX 669, BHI agar, 35°-37° C., 20 to 24 hours): 100 µg/mL | MIC ([11]; Streptococcus pyogenes 2548 induc, BHI agar, 35°-37° C., 20 to 24 hours): 0.39 µg/mL | MIC ([12]; Staphylococcus aureus ATCC 6538P, BHI agar, 35°-37° C., 20 to 24 hours): 0.39 µg/mL | MIC (Micrococcus luteus 4698; Micrococcus luteus 4698, BHI agar, 35°-37° C., 20 to 24 hours): 0.1 µg/mL | MIC (Escherichia coli DC-2; Escherichia coli DC-2, BHI agar, 35°-37° C., 20 to 24 hours): 100 µg/mL | MIC ([13]; Streptococcus pyogenes 930 const, BHI agar, 35°-37° C., 20 to 24 hours): > 100 µg/mL | MIC (Pseudomonas cepacia 2961; Pseudomonas cepacia 2961, BHI agar, 35°-37° C., 20 to 24 hours): 25 µg/mL | MIC ([14]; Pseudomonas aeruginosa 5263, BHI agar, 35°-37° C., 20 to 24 hours): > 100 µg/mL | MIC ([15]; Pseudomonas aeruginosa A5007, BHI agar, 35°-37° C., 20 to 24 hours): > 100 µg/mL | MIC (Escherichia coli KNK 437; Escherichia coli KNK 437, BHI agar, 35°-37° C., 20 to 24 hours): 100 µg/mL | MIC ([16]; Staphylococcus aureus CMX 553, BHI agar, 35°-37° C., 20 to 24 hours): 0.39 µg/mL | MIC ([17]; Providencia stuartii CMX 640, BHI agar, 35°-37° C., 20 to 24 hours): > 100 µg/mL | MIC (Escherichia coli Juhl; Escherichia coli Juhl, BHI agar, 35°-37° C., 20 to 24 hours): 100 µg/mL | MIC ([18]; Enterococcus faecium ATCC 8043, BHI agar, 35°-37° C., 20 to 24 hours): 0.05 µg/mL | MIC ([19]; Staphylococcus aureus A5278, BHI agar, 35°-37° C., 20 to 24 hours): > 100 µg/mL | MIC ([20]; Streptococcus bovis A5169, BHI agar, 35°-37° C., 20 to 24 hours): 0.01 µg/mL | MIC ([21]; Streptococcus agalactiae 508, BHI agar, 35°-37° C., 20 to 24 hours): 0.05 µg/mL | MIC ([22]; Staphylococcus aureus NCTC 10649, BHI agar, 35°-37° C., 20 to 24 hours): 0.39 µg/mL | MIC ([23]; Pseudomonas aeruginosa BMH10, BHI agar, 35°-37° C., 20 to 24 hours): > 100 µg/mL | MIC (Escherichia coli SS; Escherichia coli SS, BHI agar, 35°-37° C., 20 to 24 hours): 0.2 µg/mL | MIC ([24]; Micrococcus luteus ATCC 9341, BHI agar, 35°-37° C., 20 to 24 hours): 0.01 µg/mL | MIC [25]: 3.1 µg/mL

CC[C@H]1OC(=O)[C@H](C)[C@@H](O[C@H]2C[C@@](C)(OC)[C@@H](O)[C@H](C)O2)[C@H](C)[C@@H](O[C@@H]2O[C@H](C)C[C@H](N(C)C)[C@H]2O)[C@](C)(O)C[C@@H](C)C(=O)[C@H](C)[C@@H](O)[C@]1(C)O [CONTROL, Erythromycin A, reference compound]
MIC ([1]; Klebsiella aerogenes, ATCC13048): 100 µg/mL (≈ 136 µM) | MIC ([2]; Klebsiella pneumoniae, ATCC8045): 50 µg/mL (≈ 68.1 µM) | MIC ([3]; Staphylococcus aureus, CMX642A): 0.2 µg/mL (≈ 0.273 µM) | MIC ([4]; Staphylococcus aureus, A5177): 1.56 µg/mL (≈ 2.13 µM) | MIC ([5]; Streptococcus pyogenes, EES61): 0.05 µg/mL (≈ 0.0681 µM) | MIC ([6]; Pseudomonas aeruginosa, 2862): > 100 µg/mL | MIC (Escherichia coli H560; Escherichia coli, H560): 50 µg/mL (≈ 68.1 µM) | MIC ([7]; Staphylococcus aureus, 1775CIPROR): > 100 µg/mL | MIC ([8]; Staphylococcus epidermidis, 3519): 0.2 µg/mL (≈ 0.273 µM) | MIC ([9]; Pseudomonas aeruginosa, K799/WT): > 100 µg/mL | MIC ([10]; Acinetobacter calcoaceticus, CMX669): 1.56 µg/mL (≈ 2.13 µM) | MIC ([11]; Streptococcus pyogenes, 2548INDUC): 6.2 µg/mL (≈ 8.45 µM) | MIC ([12]; Staphylococcus aureus, ATCC6538P): 0.2 µg/mL (≈ 0.273 µM) | MIC (Micrococcus luteus 4698; Micrococcus luteus, 4698): 0.39 µg/mL (≈ 0.531 µM) | MIC (Escherichia coli DC-2; Escherichia coli, DC2): 100 µg/mL (≈ 136 µM) | MIC ([13]; Streptococcus pyogenes, 930CONST): > 100 µg/mL | MIC (Pseudomonas cepacia 2961; Burkholderia cepacia, 2961): > 100 µg/mL | MIC ([14]; Pseudomonas aeruginosa, 5263): > 100 µg/mL | MIC ([15]; Pseudomonas aeruginosa, A5007): > 100 µg/mL | MIC (Escherichia coli KNK 437; Escherichia coli, KNK437): 50 µg/mL (≈ 68.1 µM) | MIC ([16]; Staphylococcus aureus, CMX553): 0.2 µg/mL (≈ 0.273 µM) | MIC ([17]; Providencia stuartii, CMX640): > 100 µg/mL | MIC (Escherichia coli Juhl; Escherichia coli): 50 µg/mL (≈ 68.1 µM) | MIC ([18]; Enterococcus faecium, ATCC8043): 0.1 µg/mL (≈ 0.136 µM) | MIC ([19]; Staphylococcus aureus, A5278): > 100 µg/mL | MIC ([20]; Streptococcus equinus, A5169): 0.05 µg/mL (≈ 0.0681 µM) | MIC ([21]; Streptococcus agalactiae, 508): 0.05 µg/mL (≈ 0.0681 µM) | MIC ([22]; Staphylococcus aureus, NCTC10649): 0.2 µg/mL (≈ 0.273 µM) | MIC ([23]; Pseudomonas aeruginosa, BMH10): 100 µg/mL (≈ 136 µM) | MIC (Escherichia coli SS; Escherichia coli): 0.39 µg/mL (≈ 0.531 µM) | MIC ([24]; Micrococcus luteus, ATCC9341): 0.05 µg/mL (≈ 0.0681 µM) | MIC ([25]; read-out: MIC): 3.1 µg/mL (≈ 4.22 µM)
